Source: paper PMC8797470, “Disruption of the pentraxin 3/CD44 interaction as an efficient therapy for triple‐negative breast cancers” (Clinical and Translational Medicine, 2022)
Ends that are not written are not given here.

Legend:
[1] = system: MDA-MB-231 cells; test: Sphere formation assay; type: cell-based, human; conditions: MDA-MB-231 cells, with PTX3 treatment
Method: Note that 5 × 10^3 MDA‐MB‐231 cells were seeded in ultralow attachment plates (Corning) per well. Then, cultured in conditional medium containing the treatment of TGF‐β1, PTX3, PTX3NA, RI37, GI40, IgG1κ, PTX3 Ab‐10 or PTX3 Ab‐49 and the DMEM/F12 (Gibco) added with B27 (Invitrogen), 10 ng/ml bFGF (Peprotech) and 20 ng/ml EGF (Abcam). Number of spheres was calculated by microscope after 2 weeks.

[2] = system: AKT, NF-κB and ERK1/2 activity in MDA-MB-231 cells; test: Western blot of PTX3-induced signalling; type: cell-based, human; conditions: with PTX3 treatment
Excerpt: Experimental cells were lysed with radioimmunoprecipitation assay buffer (RIPA) buffer. Specific antibodies including PTX3 (ab90806; Abcam), CEBPD (sc‐636; Santa Cruz Biotechnology), CD44 (GTX83114; GeneTex), α‐tubulin (T6199; Sigma), P84 (GTX70220; GeneTex), RAC1 (GTX100761; GeneTex), CDC42 (GTX100904; GeneTex), AKT (GTX121937; GeneTex), Phospho‐AKT (Ser473) (GTX128414; GeneTex), Phospho‐NF‐κB p65 (Ser536) (#93H1; Cell Signaling), RhoA (ab68826; Abcam), NF‐κB p65 (#3033; Cell Signaling), Phospho‐p38 MAPK (Thr180/Tyr182) (#9211; Cell Signaling), PTEN (ab32199; Abcam), p38 MAPK (#9212; Cell Signaling), Phospho‐SAPK/JNK (Thr183/Tyr185) (#4668; Cell Signaling), Phospho‐p70 S6 Kinase (Thr389) (MABS82; Millipore), Phospho‐PAK1 (Ser199/Ser204) (09‐258; Millipore), SAPK/JNK (#9252; Cell Signaling), Phospho‐p44/42 MAPK (ERK1/2) (Thr202/Tyr204) (#4377; Cell Signaling) and p44/42 MAPK (ERK1/2) (#9102; Cell Signaling) were used for Western blotting.

[3] = system: mCherry fluorescent-expressing 4T1 cells; test: Orthotopic allograft of mCherry 4T1 cells in BALB/c mice; type: in vivo, mouse; conditions: 40 mg/kg peptide every day, intraperitoneal
Excerpt: For the animal model, MB‐Luc2 cells were mixed with human BCAFs xenografts: 1 × 10^5 MB‐Luc2 were mixed with either 1 × 10^5 BCAFs carrying a control knockdown vector (shCtl‐BCAFs), or 1 × 10^5 BCAFs carrying a CEBPD knockdown vector (shCD‐BCAFs), or 1 × 10^5 BCAFs carrying a PTX3 knockdown vector (shP‐BCAFs). The cell mixtures were inoculated into the mammary fat pads of NOD‐SCID mice. In peptide treatment experiments, NOD‐SCID mice were orthotopically inoculated with 1 × 10^6 mCherry fluorescent‐expressing MDA‐MB‐231 cells into the mammary fat pad. Similarly, 5 × 10^5 mCherry fluorescent‐expressing 4T1 cells were orthotopically inoculated into BALB/c mice in the mammary fat pad. Once tumours reached to the mean of 50 mm^3, the mice were administered 40 mg/kg of peptides RI37, GI40, P2rdAD9 or P12rdGR9 every day by intraperitoneal injection. For paclitaxel treatment, 30 mg/kg of paclitaxel was administered to the experimental mice once a week. […] The images of in vivo bioluminescence and metastasis quantification of the lung and brain were analysed by a Xenogen IVISR Spectrum Noninvasive Quantitative Molecular Imaging System. […] After that, tumour volume was mathematically determined by using the standard formula: […], where l represents the length and w represents the width of the tumour. […] After, the number of nodules on the lung surface was measured. […]

[4] = target: T1, PTX3/CD44 interaction (Homo sapiens, UniProt P16070); test: Competitive binding ELISA of HRP-conjugated PTX3 to immobilised CD44; conditions: biotinylated peptide 2 h, then 5 μg/ml HRP-conjugated PTX3 1 h at RT
T1 construct: purchased Sino Biological Inc. (CD44) 12211-H08H
T1 sequence (P16070 21-220 limits assumed): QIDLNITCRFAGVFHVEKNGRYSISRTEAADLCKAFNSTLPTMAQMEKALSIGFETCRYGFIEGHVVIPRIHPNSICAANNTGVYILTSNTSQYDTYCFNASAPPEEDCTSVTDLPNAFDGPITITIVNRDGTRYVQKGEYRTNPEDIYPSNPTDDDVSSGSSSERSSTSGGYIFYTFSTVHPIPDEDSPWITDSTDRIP
Method: Plate wells (9018; Corning Costar) were coated with 10 μg/ml of CD44 (12211‐H08H; Sino Biological Inc.) in PBS (pH 7.2) and then blocking for 1 h with the blocking buffer including 3% milk in PBS. For the stability binding experiments, the PTX3‐devired biotinylated peptides were pre‐incubated in serum for 1, 2, 4 or 6 h. For the binding experiments, the horseradish peroxidase (HRP)‐conjugated recombinant PTX3, PTX3/N, PTX3/C and PTX3NA or PTX3‐devired biotinylated peptides AD9, GR9, P2rdAD9 and P12rdGR9 (32310; LEADGENE) was responded in the well for 2 h. For the peptide of competition experiments, the PTX3‐devired biotinylated peptides RI37 and GI40 were diluted at the indicated concentration in PBS. After 2 h, PBS washed three times and then incubated with 5 μg/ml HRP‐conjugated PTX3 in PBS for 1 h at room temperature (RT). For the antibody competition experiments, Ab‐10 and Ab‐49 were incubated with 5 μg/ml HRP‐conjugated PTX3 in PBS for 2 h at RT. After incubation, the mixtures was responded in the well for 1 h at RT and then PBS washed three times, tetramethyl benzidine (TMB) was used to detect the bound HRP conjugate. After 15 min, the peroxidase reaction was stopped by adding 0.1 M H2SO4. Next, ELISA plate reader was used to detect the optical densities at 450 nm.

Row | Substance | PTX3-induced sphere-forming ability (stemness) [1] | PTX3-induced AKT, NF-κB and ERK1/2 activity (signalling pathways) [2] | tumour growth and metastasis [3] | binding of PTX3 and CD44 in competition with peptide [4]
1 | GI40: peptide, PTX3 amino acids 320–359 (GGGFDETLAFSGRLTGFNIWDSVLSNEEIRETGGAESCHI; also: biotin, position not given here) | suppressed | suppressed | suppressed | attenuated
2 | RI37: peptide, PTX3 amino acids 200–236 (RPMRLESFSACIWVKATDVLNKTILFSYGTKRNPYEI; also: biotin, position not given here) | suppressed | suppressed | suppressed | attenuated
